Test results from patent US11015061B2, “Phthalocyanine-based compound and uses of same” (YAMAMOTO CHEMICALS, INC., priority 2017, dated 2021).

Tests used:
Assay type in all cases: physicochemical
[1] = Visible light transmittance of chloroform solution; details: spectrum converted to transmittance 10% at near-infrared maximum absorption wavelength
Procedure: The visible light transmittance of the phthalocyanine-based compound of the present invention and the comparative example compounds was measured by the following measurement method.
Each of the phthalocyanine compounds ([…]) and approximately 90 mL of chloroform were put into a 100 mL volumetric flask, and the solution in the flask was irradiated with ultrasonic waves for 30 minutes and left to stand for 2 hours at room temperature. Then, chloroform was added thereto such that the meniscus of the solution matched up with the calibration mark on the volumetric flask, thereby preparing a 10 mg/L phthalocyanine solution. The prepared solution was put into a 1 cm×1 cm cell made of PYREX (registered trademark), and the absorption spectrum thereof was measured using a spectrophotometer (produced by Hitachi, Ltd.: Spectrophotometer U-3500).
The absorption spectrum measured as above was converted such that the absorbance became 1.0, that is, the transmittance became 10% at the maximum absorption wavelength in a near-infrared range, thereby obtaining a transmission spectrum. […] At 460 nm, the transmittance of the compound of the present invention was approximately the same as the transmittance of Comparative Examples 1 and 2.

[2] = Visible light transmittance of laminated glass sample; details: 380 to 780 nm, JIS R3212
Procedure: The phthalocyanine-based compound (Specific Example (1)-30) produced in Example 1 (0.013 g) was dissolved in 40 g of triethylene glycol-di-2-ethylhexanoate as an organic ester plasticizer. The obtained solution was added to 100 g of a polyvinyl butyral resin (trade name: BH-3, produced by SEKISUI CHEMICAL CO., LTD.), thoroughly melted and kneaded using a mixing roll, and extruded using an extruder, thereby obtaining an interlayer having a thickness of 0.76 mm.
The interlayer was cut in size of 100 mm×100 mm, interposed between heat ray absorbing glass plates (100 mm (length)×100 mm (width)×2.0 mm (thickness)) prepared based on JIS R3208, put into a rubber bag, and deaerated for 20 minutes at a degree of vacuum of 2.6 kPa. Then, the deaerated laminate was moved into an oven and further hold for 30 minutes at 90° C. to vacuum press. Thereafter, the laminate was compressed for 20 minutes in an autoclave under the condition of a temperature of 130° C. and a pressure of 1.3 MPa, thereby obtaining a laminated glass sample.
By using U-3500 type recording spectrophotometer produced by Hitachi, Ltd. as a measurement instrument, the visible light transmittance of the laminated glass samples at a wavelength of 380 to 780 nm was measured based on JIS R3212 “Test methods of safety glazing materials for road vehicles”.

[3] = Tts (total solar transmittance) of heat ray shielding film; details: heat ray shielding film (5 g compound, 50 g acryl resin LP-45M, 2.5 μm on PET) on 3 mm glass plate; JIS R3106
Source text: The phthalocyanine compound (Specific Example (1)-30) produced in Example 1 (5 g), 50 g of an acryl resin LP-45M (trade name, produced by Soken Chemical & Engineering Co., Ltd.), 20 g of methyl ethyl ketone, and 20 g of toluene were mixed and stirred together, thereby producing a resin composition.
As a transparent substrate, a polyethylene terephthalate film (PET film) having a thickness of 100 μm was bar-coated with the resin composition such that the thickness thereof became 2.5 μm, and then the applied resin composition was dried for 3 minutes at 100° C. Furthermore, the other surface of the PET film (surface not being coated with the resin composition) was bar-coated with a transparent acryl copolymer-based pressure sensitive adhesive such that the thickness thereof became 20 μm, and the applied pressure sensitive adhesive was dried and cured for 3 minutes at 100° C. Thereafter, a release film was bonded to the surface of the pressure sensitive adhesive, thereby producing a heat ray shielding film.
In the evaluation test, the release film was peeled from the produced heat ray shielding film, then the heat ray shielding film was compressed on a 5 cm×5 cm×3 mm (thickness) glass plate, and a test piece created in this way was used.
By using U-3500 type recording spectrophotometer produced by Hitachi, Ltd. as a measurement instrument, Tts of the laminated glass sample was measured based on JIS R3106 “Testing method for transmittance, reflectance, emissivity, and solar heat gain coefficient of flat glasses”.
Tts (Total solar energy transmitted through a glazing) represents a total solar transmittance.

Transmittance (%) 460 nm [1] | Transmittance (%) 610 nm [1] | Visible light transmittance [2] | Tts [3] | SMILES
98.1% | 88.3% | 77.5% | 85.8% | CCOCCCCc1ccc(CCCCOCC)c2c1-c1nc-2nc2[n-]c(nc3nc(nc4[n-]c(n1)c1c(CCCCOCC)ccc(CCCCOCC)c41)-c1c(CCCCOCC)ccc(CCCCOCC)c1-3)c1c(CCCCOCC)ccc(CCCCOCC)c21.[O]=[V+2] [Specific Example (1)-33]
97.6% | 88.0% | 77.6% | 85.7% | Fc1ccccc1OCCCCc1ccc(CCCCOc2ccccc2F)c2c1-c1nc-2nc2[n-]c(nc3nc(nc4[n-]c(n1)c1c(CCCCOc5ccccc5F)ccc(CCCCOc5ccccc5F)c41)-c1c(CCCCOc4ccccc4F)ccc(CCCCOc4ccccc4F)c1-3)c1c(CCCCOc3ccccc3F)ccc(CCCCOc3ccccc3F)c21.[O]=[V+2] [Specific Example (1)-43]
99.2% | 88.3% | 77.7% | 86% | COCCCCc1ccc(CCCCOC)c2c1-c1nc-2nc2[n-]c(nc3nc(nc4[n-]c(n1)c1c(CCCCOC)ccc(CCCCOC)c41)-c1c(CCCCOC)ccc(CCCCOC)c1-3)c1c(CCCCOC)ccc(CCCCOC)c21.[Cu+2] [Specific Example (1)-31]
98.0% | 88.1% | 77.9% | 85.5% | [O]=[V+2].c1ccc(OCCCCc2ccc(CCCCOc3ccccc3)c3c2-c2nc-3nc3[n-]c(nc4nc(nc5[n-]c(n2)c2c(CCCCOc6ccccc6)ccc(CCCCOc6ccccc6)c52)-c2c(CCCCOc5ccccc5)ccc(CCCCOc5ccccc5)c2-4)c2c(CCCCOc4ccccc4)ccc(CCCCOc4ccccc4)c32)cc1 [Specific Example (1)-37]
98.1% | 88.4% | 78.1% | 86.1% | COCCCCc1ccc(CCCCOC)c2c1-c1nc-2nc2[n-]c(nc3nc(nc4[n-]c(n1)c1c(CCCCOC)ccc(CCCCOC)c41)-c1c(CCCCOC)ccc(CCCCOC)c1-3)c1c(CCCCOC)ccc(CCCCOC)c21.[O]=[V+2] [Specific Example (1)-30]
97.9% | 86.6% | 75% | 89.5% | COCc1ccc(COC)c2c1-c1nc-2nc2[n-]c(nc3nc(nc4[n-]c(n1)c1c(COC)ccc(COC)c41)-c1c(COC)ccc(COC)c1-3)c1c(COC)ccc(COC)c21.[O]=[V+2] [Comparative Example Compound (a), reference compound]
97.7% | 88.1% | 78% | 85.9% | COc1cccc(OCCCCc2ccc(CCCCOc3cccc(OC)c3)c3c2-c2nc-3nc3[n-]c(nc4nc(nc5[n-]c(n2)c2c(CCCCOc6cccc(OC)c6)ccc(CCCCOc6cccc(OC)c6)c52)-c2c(CCCCOc5cccc(OC)c5)ccc(CCCCOc5cccc(OC)c5)c2-4)c2c(CCCCOc4cccc(OC)c4)ccc(CCCCOc4cccc(OC)c4)c32)c1.[O]=[V+2] [Specific Example (1)-39]
97.9% | 88.5% | 77.7% | 86% | CC(C)(C)c1ccc(OCCCCc2ccc(CCCCOc3ccc(C(C)(C)C)cc3)c3c2-c2nc-3nc3[n-]c(nc4nc(nc5[n-]c(n2)c2c(CCCCOc6ccc(C(C)(C)C)cc6)ccc(CCCCOc6ccc(C(C)(C)C)cc6)c52)-c2c(CCCCOc5ccc(C(C)(C)C)cc5)ccc(CCCCOc5ccc(C(C)(C)C)cc5)c2-4)c2c(CCCCOc4ccc(C(C)(C)C)cc4)ccc(CCCCOc4ccc(C(C)(C)C)cc4)c32)cc1.[O]=[V+2] [Specific Example (1)-42]
99.4% | 88.0% | 77.9% | 85.9% | COc1cccc(OCCCCc2ccc(CCCCOc3cccc(OC)c3)c3c2-c2nc-3nc3[n-]c(nc4nc(nc5[n-]c(n2)c2c(CCCCOc6cccc(OC)c6)ccc(CCCCOc6cccc(OC)c6)c52)-c2c(CCCCOc5cccc(OC)c5)ccc(CCCCOc5cccc(OC)c5)c2-4)c2c(CCCCOc4cccc(OC)c4)ccc(CCCCOc4cccc(OC)c4)c32)c1.[Cu+2] [Specific Example (1)-40]
99.9% | 89.5% | 77.4% | 85.5% | COc1cccc(OC)c1OCCCCc1ccc(CCCCOc2c(OC)cccc2OC)c2c1-c1nc-2nc2[n-]c(nc3nc(nc4[n-]c(n1)c1c(CCCCOc5c(OC)cccc5OC)ccc(CCCCOc5c(OC)cccc5OC)c41)-c1c(CCCCOc4c(OC)cccc4OC)ccc(CCCCOc4c(OC)cccc4OC)c1-3)c1c(CCCCOc3c(OC)cccc3OC)ccc(CCCCOc3c(OC)cccc3OC)c21.[Cu+2] [Specific Example (1)-45]
98.3% | 88.6% | 77.8% | 85.8% | [O]=[V+2].c1ccc(OCCOCCCCc2ccc(CCCCOCCOc3ccccc3)c3c2-c2nc-3nc3[n-]c(nc4nc(nc5[n-]c(n2)c2c(CCCCOCCOc6ccccc6)ccc(CCCCOCCOc6ccccc6)c52)-c2c(CCCCOCCOc5ccccc5)ccc(CCCCOCCOc5ccccc5)c2-4)c2c(CCCCOCCOc4ccccc4)ccc(CCCCOCCOc4ccccc4)c32)cc1 [Specific Example (1)-38]
98.3% | 89.0% | 77.9% | 85.6% | COc1cccc(OC)c1OCCCCc1ccc(CCCCOc2c(OC)cccc2OC)c2c1-c1nc-2nc2[n-]c(nc3nc(nc4[n-]c(n1)c1c(CCCCOc5c(OC)cccc5OC)ccc(CCCCOc5c(OC)cccc5OC)c41)-c1c(CCCCOc4c(OC)cccc4OC)ccc(CCCCOc4c(OC)cccc4OC)c1-3)c1c(CCCCOc3c(OC)cccc3OC)ccc(CCCCOc3c(OC)cccc3OC)c21.[O]=[V+2] [Specific Example (1)-44]
